The conditions of data set [1]: racemate; cited from earlier work.
Data set [2] is classed as in vitro ADME, human. As to the method: The effect of selected formulations on levormeloxifene fumarate permeation through human skin in vitro is illustrated in the following way:
Franz glass diffusion cells were used (Franz, T. J.: Curr. Probl. Dermatol., 1978: 7; 58-68).
Experiments were performed on abdominal or breast skin obtained after surgery and kept at -20° C. for not more than ten months. After initial thawing the skin was squeezed between a metal and a glass plate, and after refreezing the skin was dermatomed to a thickness of 0.5 mm.
The human skin membrane was enclosed in the glass chambers with ground faces (diffusing area 0.64 cm^2). A clamp was used to keep the chambers together. […]
After the skin was allowed to equilibrate at 32° C. for one hour, the capacitance was measured with a Lutron DM 6023 Capacitance meter. […]
The donor solutions were made of selected vehicles which were saturated with levormeloxifene fumarate, cf. […] The concentrations of levormeloxifene fumarate in the donor solutions were determined previously by a HPLC method. […]
At appropriate intervals, samples were taken from the receptor phase and replaced by fresh receptor solution in order to keep sink-conditions. The amount of levormeloxifene fumarate in the receptor solution was determined using liquid scintillatory counting. […]
The mean value and the standard deviation were calculated of the flux J of the replicates. […]

Data set [3] in a line: Concentration of levormeloxifene fumarate in saturated donor solutions (HPLC). It is filed as physicochemical. Conditions: stirred 24 hours, room temperature; for solubility thermodynamic at 24 h: read-out: Conc. unmarked (donor phase saturated). How it is done: The donor solutions were made of selected vehicles which were saturated with levormeloxifene fumarate, cf. Table 1. To prepare the donor solutions, levormeloxifene fumarate was added to the vehicles, and after stirring at room temperature for 24 hours, the donor solution was saturated with levormeloxifene fumarate and filtered through a Millipore filter 0.22 μm. Thereafter ^14 C-levormeloxifene was added to 1.00 ml of the donor solution to give a final concentration of ^14 C-levormeloxifene at 3 mg/ml (1,3 mCi/mi). Thereafter the donor solution was applied on the epidermal side of the skin, and the experiment was performed with occlusion. The concentrations of levormeloxifene fumarate in the donor solutions were determined previously by a HPLC method.

For data set [4] the following is noted: background statement, cited from earlier work.
For data set [5] the following is noted: background statement; cited from earlier work.

Where “and” joins values, the source holds several entries; their conditions need not be identical. Identical values can stand only once. Counter-ions that a name gives are not always drawn. Like-named read-outs stand apart in the source and are kept apart here.

With `COc1ccc2c(c1)OC(C)(C)[C@@H](c1ccccc1)[C@@H]2c1ccc(OCCN2CCCC2)cc1` (relative stereo) [Centchroman], the cholesterol lowering result in data set [1] is given as “potent cholesterol lowering pharmaceutical agent expressed by a significant decrease of the serum concentrations”.

`COc1ccc2c(c1)OC(C)(C)[C@@H](c1ccccc1)[C@@H]2c1ccc(OCCN2CCCC2)cc1` [levormeloxifene fumarate, (-)-3R,4R-trans-7-methoxy-2,2-dimethyl-3-phenyl-4-{4-[2-(pyrrolidin-1-yl)ethoxy]phenyl}chromane, hydrogen fumarate] displayed a Dosage per day in data set [2] of 0.56 mg. Also, in data set [2] (pH 4), the “Flux ± S.D.” value is on record as 0.495 ± 0.125 mg × cm^-2 × h^-1. Moreover, the solubility thermodynamic at 24 h in data set [3] (acetic acid 0.05m (b4), pH 4, vehicle B4 (acetic acid 0.05M, pH 4)) was found to be 325 µg/mL; in data set [3] (b4 + 2% 2-pyrrolidon, vehicle B4 + 2% 2-pyrrolidon) it was 420 µg/mL; in data set [3] (b4 + 20% ethanol, organic solvent or mixture, vehicle B4 + 20% ethanol), 1400 µg/mL; in data set [3] (b4 + 30% ethanol, organic solvent or mixture, vehicle B4 + 30% ethanol), 3100 µg/mL; in data set [3] (pg + 10% oleic acid, organic solvent or mixture, vehicle PG + 10% oleic acid), 116000 µg/mL. Besides, in data set [3] (vehicle B4 (acetic acid 0.05M, pH 4), 1440 min), the “Conc. unmarked (donor phase saturated)” value is 320 µg/mL and 325 µg/mL.

Consider `COc1ccc2c(c1)OC(C)(C)[C@@H](c1ccccc1)[C@@H]2c1ccc(OCCN2CCCC2)cc1` [hydrochloride salt], for which, in data set [4], the “behaviour in aqueous suspension” value was “forms a solid gel in aqueous suspension” and the solubility in water entry was “quite heavy soluble in water”. The hygroscopicity result in data set [5] is recorded as “hygroscopic”.

Take `COc1ccc2c(c1)OC(C)(C)[C@@H](c1ccccc1)[C@@H]2c1ccc(OCCN2CCCC2)cc1` [levormeloxifene, (-)-3R,4R-trans-7-methoxy-2,2-dimethyl-3-phenyl-4-{4-[2-(pyrrolidin-1-yl)ethoxy]phenyl}chromane]: the solubility in water entry in data set [4] (listed as free base) is given as “very poor solubility in water”.

(Values after patent publication US5935987A, “Transdermal delivery of 3,4-diarylchromans” (priority 1996, dated 1999).)
